Measured values from patent US11708367B2, “Compounds for the treatment of kinase-dependent disorders” (Exelixis, Inc., priority 2018, dated 2023).
pIC50: −log10 of the molar value.

Experiments:
[1] = target: KDR (Homo sapiens (Human), UniProt P35968); experiment: KDR autophosphorylation ELISA in HUVEC cells; format: cell-based; details: cellular, VEGF165-stimulated, phospho-KDR ELISA
Summary of the method: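 Serum-starved (24 h) HUVECs were pre-treated with compound (8-point dose curve, 0.3% DMSO final) for 1 h, then stimulated with 100 ng/mL human VEGF165 for 5 min. Lysate phospho-KDR was quantified by ELISA against a phospho-KDR standard. IC50 came from a 4-parameter logistic fit, normalized to stimulated-DMSO (100%) and unstimulated (0%) controls.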

[2] = target: Mer (Homo sapiens (Human), UniProt Q12866); experiment: Human Mer kinase assay (33P radiometric, KinaseProfiler); format: biochemical; details: 10 μM ATP
[3] = target: T1, Met (Homo sapiens (Human), UniProt P08581); experiment: Human Met kinase assay (33P radiometric, KinaseProfiler); format: biochemical; details: 10 μM ATP, read-out: c-Met IC50
[4] = target: T1, Met; experiment: Met autophosphorylation ELISA in PC-3 cells; format: cell-based; details: cellular, HGF-stimulated, phospho-Met ELISA, read-out: c-Met IC50
Summary of the method: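 Serum-starved PC-3 cells treated 1 h with compound (8-point series, 0.3% DMSO), then stimulated 10 min with 100 ng/mL HGF. Phospho-Met (panTyr) quantified in lysates by sandwich ELISA; IC50 from 4-parameter logistic fit against DMSO and reference-inhibitor controls.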
Target sequence in this assay (P08581 25-1390): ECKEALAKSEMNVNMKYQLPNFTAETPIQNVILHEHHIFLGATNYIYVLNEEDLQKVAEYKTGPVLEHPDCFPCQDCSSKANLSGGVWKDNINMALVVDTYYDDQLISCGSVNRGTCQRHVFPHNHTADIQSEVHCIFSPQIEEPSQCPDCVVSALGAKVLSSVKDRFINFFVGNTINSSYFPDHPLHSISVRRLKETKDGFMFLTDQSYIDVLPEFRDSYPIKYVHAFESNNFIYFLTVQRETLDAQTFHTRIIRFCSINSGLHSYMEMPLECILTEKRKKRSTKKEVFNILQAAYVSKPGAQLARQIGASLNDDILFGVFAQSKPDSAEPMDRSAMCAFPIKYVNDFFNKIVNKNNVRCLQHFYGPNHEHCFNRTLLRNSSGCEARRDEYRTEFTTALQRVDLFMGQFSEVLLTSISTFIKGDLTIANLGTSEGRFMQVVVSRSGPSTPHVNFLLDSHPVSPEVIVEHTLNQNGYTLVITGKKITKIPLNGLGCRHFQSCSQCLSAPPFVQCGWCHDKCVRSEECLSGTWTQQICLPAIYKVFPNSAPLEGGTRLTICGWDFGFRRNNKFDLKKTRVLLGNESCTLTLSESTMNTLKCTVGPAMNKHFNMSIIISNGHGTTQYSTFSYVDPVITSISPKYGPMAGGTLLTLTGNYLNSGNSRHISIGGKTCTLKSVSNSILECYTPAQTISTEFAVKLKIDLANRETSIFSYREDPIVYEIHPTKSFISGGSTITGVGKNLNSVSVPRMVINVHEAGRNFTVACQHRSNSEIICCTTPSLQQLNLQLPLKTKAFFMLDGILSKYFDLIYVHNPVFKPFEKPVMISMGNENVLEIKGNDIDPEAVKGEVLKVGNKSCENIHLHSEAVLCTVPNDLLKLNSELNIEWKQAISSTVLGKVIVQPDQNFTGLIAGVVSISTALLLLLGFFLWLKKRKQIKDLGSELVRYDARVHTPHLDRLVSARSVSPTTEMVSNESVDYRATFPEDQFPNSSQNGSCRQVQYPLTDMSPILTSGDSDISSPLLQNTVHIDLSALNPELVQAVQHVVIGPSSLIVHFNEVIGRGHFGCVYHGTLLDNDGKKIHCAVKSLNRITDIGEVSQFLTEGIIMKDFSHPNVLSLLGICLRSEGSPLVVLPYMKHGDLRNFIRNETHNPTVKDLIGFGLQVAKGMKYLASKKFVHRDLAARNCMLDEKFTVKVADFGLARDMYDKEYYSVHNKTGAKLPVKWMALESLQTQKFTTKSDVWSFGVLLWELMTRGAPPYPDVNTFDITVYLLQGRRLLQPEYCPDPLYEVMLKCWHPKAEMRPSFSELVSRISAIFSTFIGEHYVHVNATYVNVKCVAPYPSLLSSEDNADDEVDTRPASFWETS

Sequence of KDR (P35968 20-1356): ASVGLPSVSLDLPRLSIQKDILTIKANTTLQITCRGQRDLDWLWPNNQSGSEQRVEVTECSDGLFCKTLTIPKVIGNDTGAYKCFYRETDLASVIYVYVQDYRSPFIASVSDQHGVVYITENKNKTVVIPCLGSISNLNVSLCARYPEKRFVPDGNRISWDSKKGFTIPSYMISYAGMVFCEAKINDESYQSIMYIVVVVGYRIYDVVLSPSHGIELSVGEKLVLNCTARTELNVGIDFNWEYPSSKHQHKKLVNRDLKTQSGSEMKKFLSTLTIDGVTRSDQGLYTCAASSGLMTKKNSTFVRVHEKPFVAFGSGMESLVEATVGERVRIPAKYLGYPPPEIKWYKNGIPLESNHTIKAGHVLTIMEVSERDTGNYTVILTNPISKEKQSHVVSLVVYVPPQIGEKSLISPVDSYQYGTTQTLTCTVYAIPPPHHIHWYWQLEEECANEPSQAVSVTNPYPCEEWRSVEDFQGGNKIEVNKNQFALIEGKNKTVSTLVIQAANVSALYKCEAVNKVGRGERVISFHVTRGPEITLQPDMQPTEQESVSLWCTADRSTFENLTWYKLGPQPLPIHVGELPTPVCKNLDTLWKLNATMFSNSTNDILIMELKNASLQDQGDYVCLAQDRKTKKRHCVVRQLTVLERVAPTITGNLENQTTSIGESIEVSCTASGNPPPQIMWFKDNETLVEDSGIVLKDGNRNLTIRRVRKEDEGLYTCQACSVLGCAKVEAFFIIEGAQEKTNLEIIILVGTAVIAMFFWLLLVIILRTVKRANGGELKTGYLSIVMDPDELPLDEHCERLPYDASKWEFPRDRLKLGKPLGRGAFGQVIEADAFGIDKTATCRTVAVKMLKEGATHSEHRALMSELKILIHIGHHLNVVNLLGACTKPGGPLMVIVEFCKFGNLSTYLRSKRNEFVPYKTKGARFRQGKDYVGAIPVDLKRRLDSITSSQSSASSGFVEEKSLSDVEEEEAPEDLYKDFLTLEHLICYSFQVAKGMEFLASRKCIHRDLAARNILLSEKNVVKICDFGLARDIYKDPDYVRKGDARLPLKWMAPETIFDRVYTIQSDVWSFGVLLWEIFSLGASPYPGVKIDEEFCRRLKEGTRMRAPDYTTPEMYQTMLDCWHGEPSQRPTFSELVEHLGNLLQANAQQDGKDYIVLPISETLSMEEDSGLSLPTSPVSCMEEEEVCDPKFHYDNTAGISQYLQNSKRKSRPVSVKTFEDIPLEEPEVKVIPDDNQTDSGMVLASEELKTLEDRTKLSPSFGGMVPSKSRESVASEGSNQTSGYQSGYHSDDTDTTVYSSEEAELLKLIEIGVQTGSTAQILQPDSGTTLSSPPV
Sequence of Mer (Q12866 557-882): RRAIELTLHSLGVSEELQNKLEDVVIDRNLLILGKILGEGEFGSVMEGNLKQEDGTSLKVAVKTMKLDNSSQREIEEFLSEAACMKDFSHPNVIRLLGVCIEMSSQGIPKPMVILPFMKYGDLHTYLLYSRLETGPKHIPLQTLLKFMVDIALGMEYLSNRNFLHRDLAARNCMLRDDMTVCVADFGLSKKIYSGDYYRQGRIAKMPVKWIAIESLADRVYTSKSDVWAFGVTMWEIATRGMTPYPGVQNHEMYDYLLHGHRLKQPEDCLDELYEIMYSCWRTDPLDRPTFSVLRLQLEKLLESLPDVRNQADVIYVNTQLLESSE

pIC50 [1] | pIC50 [2] | pIC50 [3] | pIC50 [4] | SMILES
≥ 8.00 | ≥ 8.00 | ≥ 8.00 | 7.00 to 8.00 | COc1cc2ncnc(Oc3ccc(NC(=O)C4(C(=O)Nc5ccc(F)cc5)CC4)cc3Cl)c2nc1OC [Compound 29, 1-N′-[3-chloro-4-(6,7-dimethoxypyrido[3,2-d]pyrimidin-4-yl)oxyphenyl]-1-N-(4-fluorophenyl)cyclo-propane-1,1-dicarboxamide]
≥ 8.00 | ≥ 8.00 | ≥ 8.00 | 7.00 to 8.00 | COc1nc2c(Oc3ccc(NC(=O)C4(C(=O)Nc5ccc(F)cc5)CC4)cc3F)ncnc2cc1OCCCN1CCOCC1 [Compound 67, 1-N′-[3-fluoro-4-[6-methoxy-7-(3-morpholin-4-ylpropoxy)pyrido[3,2-d]pyrimidin-4-yl]oxyphenyl]-1-N-(4-fluorophenyl)cyclo-propane-1,1-dicarboxamide]
